# “Also recorded” adds a separate entry of the source.
# Experiment: Treatment-emergent adverse events (MedDRA, NCI-CTCAE v4.03), safety populations
# Type: in vivo, human
# Protocol: Overall safety in Parts A and B was assessed by tabulating TEAEs, coded using the Medical Dictionary for Regulatory Activities (MedDRA) version 22.1, and graded according to NCI-CTCAE v4.03 criteria. TEAEs were classified as related or unrelated to amcenestrant therapy based upon the local investigating physician’s clinical judgment. The safety population included all patients exposed to at least one dose of the study treatment. Results were analyzed using descriptive statistics.
structure (smiles),measurement,setting,value
"O=C(O)c1ccc2c(c1)CCCC(c1ccc(Cl)cc1Cl)=C2c1ccc(O[C@H]2CCN(CCCF)C2)cc1 [amcenestrant, 6-(2,4-Dichlorophenyl)−5-[4-[(3S)−1-(3-fluoropropyl)pyrrolidin-3-yl]oxyphenyl]−8,9-dihydro-7H-benzo[7]annulene-2-carboxylic acid]","Headache, Treatment-related TEAEs, All Grades","Part B, 400 mg QD (N = 49)",0 n (%)
same,"Headache, Treatment-related TEAEs, Grade 1","Part B, 400 mg QD (N = 49)",0 n (%)
same,"Headache, Treatment-related TEAEs, Grade 2","Part B, 400 mg QD (N = 49)",0 n (%)
same,"Headache, Treatment-related TEAEs, Grade ≥3","Part B, 400 mg QD (N = 49)",0 n (%)
same,"Hot flush, TEAEs, All grades","Part B, 400 mg QD (N = 49)",7 (14.3) n (%)
same,"Hot flush, TEAEs, Grade 1","Part B, 400 mg QD (N = 49)",5 (10.2) n (%)
same,"Hot flush, TEAEs, Grade 2","Part B, 400 mg QD (N = 49)",2 (4.1) n (%)
same,"Hot flush, TEAEs, Grade ≥3","Part B, 400 mg QD (N = 49)",0 n (%)
same,"Hot flush, Treatment-related TEAEs, All Grades","Part B, 400 mg QD (N = 49)",5 (10.2) n (%)
same,"Hot flush, Treatment-related TEAEs, Grade 1","Part B, 400 mg QD (N = 49)",5 (10.2) n (%)
same,"Hot flush, Treatment-related TEAEs, Grade 2","Part B, 400 mg QD (N = 49)",0 n (%)
same,"Hot flush, Treatment-related TEAEs, Grade ≥3","Part B, 400 mg QD (N = 49)",0 n (%)
same,"Hypertension, TEAEs, All grades","Part B, 400 mg QD (N = 49)",4 (8.2) n (%)
same,"Hypertension, TEAEs, Grade 1","Part B, 400 mg QD (N = 49)",0 n (%)
same,"Hypertension, TEAEs, Grade 2","Part B, 400 mg QD (N = 49)",4 (8.2) n (%)
same,"Hypertension, TEAEs, Grade ≥3","Part B, 400 mg QD (N = 49)",0 n (%)
same,"Hypertension, Treatment-related TEAEs, All Grades","Part B, 400 mg QD (N = 49)",1 (2.0) n (%)
same,"Hypertension, Treatment-related TEAEs, Grade 1","Part B, 400 mg QD (N = 49)",0 n (%)
same,"Hypertension, Treatment-related TEAEs, Grade 2","Part B, 400 mg QD (N = 49)",1 (2.0) n (%)
same,"Hypertension, Treatment-related TEAEs, Grade ≥3","Part B, 400 mg QD (N = 49)",0 n (%)
same,"Nasopharyngitis, TEAEs, All grades","Part B, 400 mg QD (N = 49)",3 (6.1) n (%)
same,"Nasopharyngitis, TEAEs, Grade 1","Part B, 400 mg QD (N = 49)",3 (6.1) n (%)
same,"Nasopharyngitis, TEAEs, Grade 2","Part B, 400 mg QD (N = 49)",0 n (%)
same,"Nasopharyngitis, TEAEs, Grade ≥3","Part B, 400 mg QD (N = 49)",0 n (%)
same,"Nasopharyngitis, Treatment-related TEAEs, All Grades","Part B, 400 mg QD (N = 49)",0 n (%)
same,"Nasopharyngitis, Treatment-related TEAEs, Grade 1","Part B, 400 mg QD (N = 49)",0 n (%)
same,"Nasopharyngitis, Treatment-related TEAEs, Grade 2","Part B, 400 mg QD (N = 49)",0 n (%)
same,"Nasopharyngitis, Treatment-related TEAEs, Grade ≥3","Part B, 400 mg QD (N = 49)",0 n (%)
same,"Nausea, TEAEs, All grades","Part B, 400 mg QD (N = 49)",11 (22.4) n (%)
same,"Nausea, TEAEs, Grade 1","Part B, 400 mg QD (N = 49)",9 (18.4) n (%)
same,"Nausea, TEAEs, Grade 2","Part B, 400 mg QD (N = 49)",1 (2.0) n (%)
same,"Nausea, TEAEs, Grade ≥3","Part B, 400 mg QD (N = 49)",1 (2.0) n (%)
same,"Nausea, Treatment-related TEAEs, All Grades","Part B, 400 mg QD (N = 49)",2 (4.1) n (%)
same,"Nausea, Treatment-related TEAEs, Grade 1","Part B, 400 mg QD (N = 49)",2 (4.1) n (%)
same,"Nausea, Treatment-related TEAEs, Grade 2","Part B, 400 mg QD (N = 49)",0 n (%)
same,"Nausea, Treatment-related TEAEs, Grade ≥3","Part B, 400 mg QD (N = 49)",0 n (%)
same,"Pain in extremity, TEAEs, All grades","Part B, 400 mg QD (N = 49)",3 (6.1) n (%)
same,"Pain in extremity, TEAEs, Grade 1","Part B, 400 mg QD (N = 49)",2 (4.1) n (%)
same,"Pain in extremity, TEAEs, Grade 2","Part B, 400 mg QD (N = 49)",1 (2.0) n (%)
same,"Pain in extremity, Treatment-related TEAEs, All Grades","Part B, 400 mg QD (N = 49)",0 n (%)
same,"Pain in extremity, Treatment-related TEAEs, Grade 1","Part B, 400 mg QD (N = 49)",0 n (%)
same,"Pain in extremity, Treatment-related TEAEs, Grade 2","Part B, 400 mg QD (N = 49)",0 n (%)
same,"Pain in extremity, Treatment-related TEAEs, Grade ≥3","Part B, 400 mg QD (N = 49)",0 n (%)
same,"Paresthesia, TEAEs, All grades","Part B, 400 mg QD (N = 49)",3 (6.1) n (%)
same,"Paresthesia, TEAEs, Grade 1","Part B, 400 mg QD (N = 49)",3 (6.1) n (%)
same,"Paresthesia, TEAEs, Grade 2","Part B, 400 mg QD (N = 49)",0 n (%)
same,"Paresthesia, TEAEs, Grade ≥3","Part B, 400 mg QD (N = 49)",0 n (%)
same,"Paresthesia, Treatment-related TEAEs, All Grades","Part B, 400 mg QD (N = 49)",1 (2.0) n (%)
same,"Paresthesia, Treatment-related TEAEs, Grade 1","Part B, 400 mg QD (N = 49)",1 (2.0) n (%)
same,"Paresthesia, Treatment-related TEAEs, Grade 2","Part B, 400 mg QD (N = 49)",0 n (%)
same,"Paresthesia, Treatment-related TEAEs, Grade ≥3","Part B, 400 mg QD (N = 49)",0 n (%)
same,"Pyrexia, TEAEs, All grades","Part B, 400 mg QD (N = 49)",4 (8.2) n (%)
same,"Pyrexia, TEAEs, Grade 1","Part B, 400 mg QD (N = 49)",3 (6.1) n (%)
same,"Pyrexia, TEAEs, Grade 2","Part B, 400 mg QD (N = 49)",1 (2.0) n (%)
same,"Pyrexia, TEAEs, Grade ≥3","Part B, 400 mg QD (N = 49)",0 n (%)
same,"Pyrexia, Treatment-related TEAEs, All Grades","Part B, 400 mg QD (N = 49)",0 n (%)
same,"Pyrexia, Treatment-related TEAEs, Grade 1","Part B, 400 mg QD (N = 49)",0 n (%)
same,"Pyrexia, Treatment-related TEAEs, Grade 2","Part B, 400 mg QD (N = 49)",0 n (%)
same,"Pyrexia, Treatment-related TEAEs, Grade ≥3","Part B, 400 mg QD (N = 49)",0 n (%)
same,"Rhinitis allergic, TEAEs, All grades","Part B, 400 mg QD (N = 49)",3 (6.1) n (%)
same,"Rhinitis allergic, TEAEs, Grade 1","Part B, 400 mg QD (N = 49)",2 (4.1) n (%)
same,"Rhinitis allergic, TEAEs, Grade 2","Part B, 400 mg QD (N = 49)",1 (2.0) n (%)
same,"Rhinitis allergic, TEAEs, Grade ≥3","Part B, 400 mg QD (N = 49)",0 n (%)
same,"Rhinitis allergic, Treatment-related TEAEs, All Grades","Part B, 400 mg QD (N = 49)",0 n (%)
same,"Rhinitis allergic, Treatment-related TEAEs, Grade 1","Part B, 400 mg QD (N = 49)",0 n (%)
same,"Rhinitis allergic, Treatment-related TEAEs, Grade 2","Part B, 400 mg QD (N = 49)",0 n (%)
same,"Rhinitis allergic, Treatment-related TEAEs, Grade ≥3","Part B, 400 mg QD (N = 49)",0 n (%)
same,"Urinary tract infection, TEAEs, All grades","Part B, 400 mg QD (N = 49)",5 (10.2) n (%)
same,"Urinary tract infection, TEAEs, Grade 1","Part B, 400 mg QD (N = 49)",0 n (%)
same,"Urinary tract infection, TEAEs, Grade 2","Part B, 400 mg QD (N = 49)",5 (10.2) n (%)
same,"Urinary tract infection, TEAEs, Grade ≥3","Part B, 400 mg QD (N = 49)",0 n (%)
same,"Urinary tract infection, Treatment-related TEAEs, All Grades","Part B, 400 mg QD (N = 49)",1 (2.0) n (%)
same,"Urinary tract infection, Treatment-related TEAEs, Grade 1","Part B, 400 mg QD (N = 49)",0 n (%)
same,"Urinary tract infection, Treatment-related TEAEs, Grade 2","Part B, 400 mg QD (N = 49)",1 (2.0) n (%)
same,"Urinary tract infection, Treatment-related TEAEs, Grade ≥3","Part B, 400 mg QD (N = 49)",0 n (%)
same,"Vomiting, TEAEs, All grades","Part B, 400 mg QD (N = 49)",14 (28.6) n (%)
same,"Vomiting, TEAEs, Grade 1","Part B, 400 mg QD (N = 49)",10 (20.4) n (%)
same,"Vomiting, TEAEs, Grade 2","Part B, 400 mg QD (N = 49)",3 (6.1) n (%)
same,"Vomiting, TEAEs, Grade ≥3","Part B, 400 mg QD (N = 49)",1 (2.0) n (%)
same,"Vomiting, Treatment-related TEAEs, All Grades","Part B, 400 mg QD (N = 49)",4 (8.2) n (%)
same,"Vomiting, Treatment-related TEAEs, Grade 1","Part B, 400 mg QD (N = 49)",4 (8.2) n (%)
same,"Vomiting, Treatment-related TEAEs, Grade 2","Part B, 400 mg QD (N = 49)",0 n (%)
same,"Vomiting, Treatment-related TEAEs, Grade ≥3","Part B, 400 mg QD (N = 49)",0 n (%)
same,"treatment-related TEAE arthralgia, patients","Part B, 400 mg QD (n = 49)",8.2%
same,"treatment-related TEAE constipation, patients","Part B, 400 mg QD (n = 49)",6.1%
same,"treatment-related TEAE gastroesophageal reflux disease, patients","Part B, 400 mg QD (n = 49)",6.1%
same,"treatment-related TEAE hot flush, patients","Part B, 400 mg QD (n = 49)",10.2%
same,"treatment-related TEAE vomiting, patients","Part B, 400 mg QD (n = 49)",8.2%
same,patients with serious TEAEs,"Part B, 13/49",26.5%
same,patients with at least one Grade ≥3 TEAE,"Part B, 16/49, none considered related to amcenestrant",32.7%
same,cardiac non-treatment-related TEAE,"Part B, Grade 1 sinus bradycardia",One cardiac non-treatment-related TEAE was reported
same,Grade ≥3 treatment-related adverse events,Parts A and B,No Grade ≥3 treatment-related adverse events; also recorded: no treatment-related TEAEs of Grade ≥3 occurred
same,clinically significant cardiac or eye safety findings,Parts A and B,no clinically significant cardiac or eye safety findings were observed
